Results: patent US12319655B2, “RAF kinase inhibitors and methods of use thereof” (Deciphera Pharmaceuticals, LLC, priority 2021, dated 2025)
Where two headings read alike, the source gives them in different places.

Tests used:
[1] = system: A375 cells; assay: A375 Cell Proliferation Assay (1); assay type: cell-based; details: Homo sapiens, A-375
How it was run: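 Resazurin fluorescence (excitation 540 nm, emission 600 nm, after a further 5-6 h) gave IC50s from triplicate compound dilution series.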

[2] = molecular target: B-Raf (V600E) (SEQ. ID NO: 4) kinase (Homo sapiens (Human), UniProt P15056, V600E); assay: Biochemical Assay for B-Raf (V600E) (1); details: Table J, BRAF V600E
Chain of B-Raf (V600E) (SEQ. ID NO: 4) kinase (P15056 416-766 V600E): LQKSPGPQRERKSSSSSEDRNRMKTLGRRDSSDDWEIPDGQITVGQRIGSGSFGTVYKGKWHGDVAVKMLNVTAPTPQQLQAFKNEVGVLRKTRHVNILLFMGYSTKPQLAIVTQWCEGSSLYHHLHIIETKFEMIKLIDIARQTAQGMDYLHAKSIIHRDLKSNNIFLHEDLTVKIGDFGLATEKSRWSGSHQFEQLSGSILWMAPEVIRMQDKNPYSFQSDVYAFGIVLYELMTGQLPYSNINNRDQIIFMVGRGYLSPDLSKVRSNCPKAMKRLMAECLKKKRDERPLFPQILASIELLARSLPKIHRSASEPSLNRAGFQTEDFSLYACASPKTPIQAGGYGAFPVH
How it was run: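 Coupled pyruvate kinase/lactate dehydrogenase assay: 0.03 nM B-Raf V600E, 30.1 nM MEK, 1 mM ATP, pH 7.5 Tris/MgCl2 buffer, 1% DMSO. NADH oxidation followed at 340 nm for 6 h at 30 °C; rate from 3–4 h converted to percent inhibition, IC50 by four-parameter fit.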

[3] = molecular target: C-Raf kinase (SEQ. ID NO: 3) (Homo sapiens (Human), UniProt P04049, Y340D/Y341D); assay: Biochemical Assay for C-Raf (1); details: Table J
Chain of C-Raf kinase (SEQ. ID NO: 3) (P04049 307-648 Y340D/Y341D): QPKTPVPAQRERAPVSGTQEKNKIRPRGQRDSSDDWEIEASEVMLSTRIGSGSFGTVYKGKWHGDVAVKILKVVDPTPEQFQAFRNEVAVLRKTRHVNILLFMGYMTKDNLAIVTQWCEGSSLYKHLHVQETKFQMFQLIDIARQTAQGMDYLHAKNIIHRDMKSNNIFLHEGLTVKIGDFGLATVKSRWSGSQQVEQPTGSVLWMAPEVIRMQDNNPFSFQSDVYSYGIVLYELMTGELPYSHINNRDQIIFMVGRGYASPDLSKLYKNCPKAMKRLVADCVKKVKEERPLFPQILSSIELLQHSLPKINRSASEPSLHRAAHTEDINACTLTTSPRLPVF
How it was run: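 Coupled pyruvate kinase/LDH assay tracking NADH oxidation at 340 nm, with 0.43 nM C-Raf, 30.1 nM MEK and 1 mM ATP in pH 7.5 Tris buffer (15 mM MgCl2, 1% DMSO final). Read continuously for 6 h at 30 °C, rate taken from the 4–5 h window. IC50 from four-parameter fit of percent inhibition.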

[4] = system: WM3928 cells; assay: WM3928 Cell Proliferation Assay (1); assay type: cell-based
How it was run: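 IC50 was derived from resazurin fluorescence (ex 540, em 600 nm) after a 6–7 h dye incubation. Before that, cells had 67–72 h of compound exposure at 37 °C, 5% CO2.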

[5] = assay version (1), read-out: BRAF VE (1) IC50
[6] = assay version (1), read-out: CRAF (1) IC50
[7] = biochemical assay (1), read-out: BRAF VE (1)
[8] = biochemical assay (1), read-out: CRAF (1)

Structure (SMILES)	IC50 [1] [nM]	IC50 [2, 5] [nM]	IC50 [3, 6] [nM]	IC50 [2, 7] [nM]	IC50 [3, 8] [nM]	IC50 [4] [nM]
Cc1cc(F)c(NC(=O)c2ccnc(C(F)(F)F)c2)cc1-c1ccnc(-c2ccnc(NC=O)c2)c1 [Example 35]	500 to 1000	≤ 100	≤ 100	–	–	–
CC(=O)Nc1cc(-c2cc(-c3cc(NC(=O)c4ccnc(C(F)(F)F)c4)cnc3C)ccn2)ccn1 [Example 36]	500 to 1000	≤ 100	≤ 100	–	–	–
Cc1ccc(NC(=O)c2ccnc(C(F)(F)F)c2)cc1-c1ccnc(-c2ccnc(NC(=O)CC#N)c2)c1 [Example 39, N-(3-(2′-(2-cyanoacetamido)-[2,4′-bipyridin]-4-yl)-4-methylphenyl)-2-(trifluoromethyl)isonicotinamide]	500 to 1000	≤ 100	≤ 100	–	–	–
CNC(=O)c1cc(-c2cc(-c3cc(NC(=O)c4ccnc(C)c4)ccc3C)ccn2)ccn1 [Example 40]	1000 to 10000	≤ 100	≤ 100	–	–	–
CNC(=O)c1cc(-c2cc(-c3cc(NC(=O)c4ccnc(C(F)(F)F)c4)cnc3C)ccn2)ccn1 [Example 42]	1000 to 10000	≤ 100	≤ 100	–	–	1000 to 10000
Cc1ccc(NC(=O)c2ccnc(C(C)(C)C#N)c2)cc1-c1cncc(-c2ccnc3c2CC(=O)N3)n1 [Example 43]	500 to 1000	≤ 100	≤ 100	–	–	≤ 100
Cc1ccc(NC(=O)c2ccnc(C(F)(F)F)c2)cc1-c1ccnc(-c2ccnc(NC=O)c2)c1 [Example 46]	1000 to 10000	≤ 100	≤ 100	–	–	–
CNC(=O)c1cc(-c2cncc(-c3cc(NC(=O)c4ccnc(C(F)(F)F)c4)ccc3C)n2)ccn1 [Example 47]	1000 to 10000	≤ 100	≤ 100	–	–	–
CNC(=O)c1cc(-c2cc(-c3cc(NC(=O)c4ccnc(C(F)F)c4)ccc3C)ccn2)ccn1 [Example 48]	500 to 1000	≤ 100	≤ 100	–	–	500 to 1000
Cc1cc(-c2cc(-c3cc(NC(=O)c4ccnc(C(C)(C)C#N)c4)ccc3C)ccn2)ccn1 [Example 49]	500 to 1000	≤ 100	≤ 100	–	–	–
CC(=O)Nc1cc(-c2cc(-c3cc(NC(=O)c4ccnc(C)c4)ccc3C)ncn2)ccn1 [Example 59]	1000 to 10000	≤ 100	≤ 100	–	–	–
CNC(=O)c1cc(-c2cc(-c3cc(NC(=O)c4ccnc(C)c4)ccc3C)ncn2)ccn1 [Example 60]	1000 to 10000	≤ 100	≤ 100	–	–	–
CC(=O)Nc1cc(-c2cc(-c3cc(NC(=O)c4ccnc(C(F)(F)F)c4)ccc3F)cc(C)n2)ccn1 [Example 65]	500 to 1000	≤ 100	≤ 100	–	–	–
CNC(=O)c1cc(-c2cccc(-c3cc(NC(=O)c4ccnc(C(F)(F)F)c4)cnc3C)c2)ccn1 [Example 73]	1000 to 10000	≤ 100	≤ 100	–	–	–
CNC(=O)c1cc(-c2cncc(-c3cc(C(=O)Nc4cnn(C(C)C)c4)ccc3C)n2)ccn1 [Example 81]	1000 to 10000	≤ 100	100 to 500	–	–	–
CC(=O)Nc1cc(-c2cncc(-c3cc(C(=O)Nc4cnn(C(C)C)c4)ccc3C)n2)ccn1 [Example 87]	500 to 1000	≤ 100	≤ 100	–	–	–
Cc1ccc(NC(=O)c2ccnc(C(F)(F)F)c2)cc1-c1cncc(-c2ccnc(N)c2)n1 [Example 90]	1000 to 10000	≤ 100	≤ 100	–	–	–
Cc1ccc(NC(=O)c2cn(C(C)C)nc2C)cc1-c1cc(-c2ccnc(NC(=O)C3CC3)c2)cnn1 [Example 373]	1000 to 10000	–	–	100 to 500	≤ 100	–
CNC(=O)c1cc(-c2cnnc(-c3cc(NC(=O)CCC4(F)CC4)cnc3C)c2)ccn1 [Example 374]	1000 to 10000	–	–	1000 to 10000	1000 to 10000	–
Cc1ccc(NC(=O)c2cnn(CC(F)(F)F)c2)cc1-c1cncc(-c2ccnc(C(N)=O)c2)c1 [Example 381]	1000 to 10000	–	–	100 to 500	≤ 100	–
CNC(=O)c1cc(-c2cncc(-c3cc(NC(=O)c4cnn(CC(F)(F)F)c4)ccc3C)c2)ncn1 [Example 382]	1000 to 10000	–	–	100 to 500	≤ 100	–
CNC(=O)c1cc(-c2cncc(-c3cc(NC(=O)Cn4cc(C(C)C)nn4)ccc3C)c2)ncn1 [Example 383]	1000 to 10000	–	–	1000 to 10000	100 to 500	–

Now from value to compound, other results behind:

IC50 [1] [nM]	IC50 [2, 5] [nM]	IC50 [3, 6] [nM]	IC50 [2, 7] [nM]	IC50 [3, 8] [nM]	Structure (SMILES)	IC50 [4] [nM]
≤ 100	≤ 100	≤ 100	–	–	CC(=O)Nc1cc(-c2cc(-c3cc(NC(=O)c4ccnc(C(F)(F)F)c4)ccc3C)cc(OCCO)n2)ccn1 [Example 1, N-(3-(2′-acetamido-6-(2-hydroxyethoxy)-[2,4′-bipyridin]-4-yl)-4-methylphenyl)-2-(trifluoromethyl)isonicotinamide]	–
100 to 500	≤ 100	≤ 100	–	–	CC(=O)Nc1cc(-c2cc(-c3cc(NC(=O)c4ccnc(C(F)(F)F)c4)c(F)cc3C)ccn2)ccn1 [Example 2]	–
500 to 1000	≤ 100	≤ 100	–	–	CC(=O)Nc1cc(-c2cc(-c3cc(NC(=O)c4cccc(C)c4)ccc3C)ccn2)ccn1 [Example 32]	–
≤ 100	≤ 100	≤ 100	–	–	CC(=O)Nc1cc(-c2cc(-c3cc(NC(=O)c4cccc(C(F)(F)F)c4)cnc3C)ccn2)ccn1 [Example 37]	–
100 to 500	≤ 100	≤ 100	–	–	CC(=O)Nc1cc(-c2cc(-c3cc(NC(=O)c4ccnc(C(F)(F)F)c4)ccc3C)nc(N(C)C)n2)ccn1 [Example 41, N-(3-(6-(2-acetamidopyridin-4-yl)-2-(dimethylamino)pyrimidin-4-yl)-4-methylphenyl)-2-(trifluoromethyl)isonicotinamide]	≤ 100
≤ 100	≤ 100	≤ 100	–	–	CNC(=O)c1cc(-c2cc(-c3cc(NC(=O)c4ccnc(C(C)(C)C#N)c4)ccc3C)ccn2)ccn1 [Example 50]	≤ 100
100 to 500	≤ 100	≤ 100	–	–	CNC(=O)c1cc(-c2cc(-c3cc(NC(=O)c4cccc(C(F)(F)F)c4)cnc3C)ccn2)ccn1 [Example 52]	100 to 500
100 to 500	≤ 100	≤ 100	–	–	Cc1ccc(NC(=O)c2ccnc(C(F)(F)F)c2)cc1-c1ccnc(-c2ccnc(NC(=O)C3CC3)c2)c1 [Example 54]	≤ 100
100 to 500	≤ 100	≤ 100	–	–	Cc1ccc(NC(=O)c2ccnc(C(C)(C)C#N)c2)cc1-c1ccnc(-c2ccnc(N)c2)c1 [Example 56]	500 to 1000
100 to 500	≤ 100	≤ 100	–	–	COCC(=O)Nc1cc(-c2cccc(-c3cc(NC(=O)c4ccnc(C(F)(F)F)c4)ccc3C)c2)ccn1 [Example 57]	–
≤ 100	≤ 100	≤ 100	–	–	COCC(=O)Nc1cc(-c2cc(-c3cc(NC(=O)c4ccnc(C(C)(C)C#N)c4)ccc3C)ccn2)ccn1 [Example 61]	–
100 to 500	≤ 100	≤ 100	–	–	Cc1ccc(NC(=O)c2ccnc(C(F)(F)F)c2)cc1-c1cccc(-c2ccnc(NC(=O)CC#N)c2)c1 [Example 62]	–
100 to 500	≤ 100	≤ 100	–	–	Cc1ccc(NC(=O)c2ccnc(C(C)(C)C#N)c2)cc1-c1ccnc(-c2ccnc(NC(=O)CC#N)c2)c1 [Example 63]	≤ 100
100 to 500	≤ 100	≤ 100	–	–	CC(=O)Nc1cc(-c2cccc(-c3cc(NC(=O)c4ccnc(C(F)(F)F)c4)cnc3C)c2)ccn1 [Example 64]	–
100 to 500	≤ 100	≤ 100	–	–	Cc1ncc(NC(=O)c2ccnc(C(F)(F)F)c2)cc1-c1cccc(-c2ccnc(NC(=O)C3CC3)c2)c1 [Example 70]	–
≤ 100	≤ 100	≤ 100	–	–	CC(=O)Nc1cc(-c2cc(-c3cc(NC(=O)c4ccnc(C(C)(C)C#N)c4)c(F)cc3C)ccn2)ccn1 [Example 75]	–
≤ 100	≤ 100	≤ 100	–	–	Cc1cc(F)c(NC(=O)c2ccnc(C(C)(C)C#N)c2)cc1-c1ccnc(-c2ccnc(NC(=O)C3CC3)c2)c1 [Example 76]	–
≤ 100	≤ 100	≤ 100	–	–	CC(=O)Nc1cc(-c2cccc(-c3cc(NC(=O)c4ccnc(C(C)(C)C#N)c4)ccc3C)c2)ncn1 [Example 79]	–
100 to 500	≤ 100	≤ 100	–	–	CC(=O)Nc1cc(-c2cc(-c3cc(NC(=O)c4ccnc(C(F)(F)F)c4)ccc3C)nc(C)n2)ccn1 [Example 83]	–
100 to 500	≤ 100	≤ 100	–	–	CC(=O)Nc1cc(-c2cc(-c3cc(NC(=O)c4ccnc(C(F)(F)F)c4)ccc3C)ncn2)ccn1 [Example 84]	–
100 to 500	≤ 100	≤ 100	–	–	CC(=O)Nc1cc(-c2ccnc(-c3cc(NC(=O)c4ccnc(C(F)(F)F)c4)ccc3C)n2)ccn1 [Example 92]	–
